# Patent publication US5602277A, “Substituted benzene derivatives useful as neuraminidase inhibitors” (priority 1995, dated 1997)
# Where a name gives a salt, the structure may show the parent alone.
# System: HA
# Settings: cited from earlier work
row,Compound,inhibition of HA in vitro
1,"CC(=O)N[C@H]1[C@H]([C@H](O)[C@H](O)CO)OC(C(=O)O)=C[C@@H]1O [DANA, 2-deoxy-2,3-didehydro-N-acetylneuraminic acid]",inhibit

# System: not given
# Settings: cited from earlier work
row,Compound,activity in vivo
1,"CC(=O)N[C@H]1[C@H]([C@H](O)[C@H](O)CO)OC(C(=O)O)=C[C@@H]1O [DANA, 2-deoxy-2,3-didehydro-N-acetylneuraminic acid]",inactive

# System: influenza virus neuraminidase
# Type: biochemical
# Settings: compound @ 3.3 mM; substrate 75 μM, pH 6.5, 5 min at 37° C.
row,Compound,% Inhibition [%]
1,"O=C(O)c1ccc(NC(=O)C(F)(F)F)cc1 [Example 9, 4-(Trifluoroacetamido)benzoic acid]",56

# Same assay, conditions: compound @ 3.5 mM; substrate 75 μM, pH 6.5, 5 min at 37° C.
row,Compound,% Inhibition [%]
1,"N=C(N)Cc1cccc(C(=O)O)c1 [Example 23, 3-(2-Amino-2-imino)ethylbenzoic acid complex with water (5:1)]",22

# Same assay, conditions: substrate 75 μM, pH 6.5, 5 min at 37° C.
Compound,% Inhibition at 7 nM [%],IC50 [mM]
"COc1ccc(C(=O)O)cc1NC(=N)N [Example 46, 3-[(Aminoiminomethyl)amino]-4-methoxybenzoic acid hydrochloride (1:1)]",46,–
"CC(=O)Nc1ccc(C(=O)O)cc1CC(O)CO (single isomer, unassigned; isomer b) [Example 36, 4-Acetylamino-3-(2',3'-dihydroxypropyl)benzoic acid, solvate with water [4:3](Isomer B)]",35,–
"CC(=O)Nc1ccc(S(=O)(=O)O)cc1 [Example 6, 4-Acetylaminobenzenesulfonic acid hydrate (4:1)]",30,–
"CS(=O)(=O)Nc1ccc(C(=O)O)cc1 [Example 16, 4-[(Methylsulfonyl)amino]benzoic acid]",34,–
"CC(C)OC(C)C.CS(=O)(=O)Nc1c(CO)cc(C(=O)O)cc1NC(=N)N [Example 52, 3-(Aminoiminomethyl)amino-5-hydroxymethyl-4-(methylsulfonyl)aminobenzoic acid hydrate complex with diisopropyl ether (10:10:1)]",–,2
"CC(=O)Nc1ccc(C(=O)O)cc1 [Example 4, 4-Acetylaminobenzoic acid]",39,–
"N=C(N)Nc1ccccc1 [Example 1, Phenylguanidine carbonate hydrate (2:1:1)]",44,–
"CC(=O)Nc1ccc(C(=O)O)cc1CC(O)CO (single isomer, unassigned; isomer a) [Example 35, 4-Acetylamino-3-(2',3'-dihydroxypropyl)benzoic acid, solvate with water [5:1] (Isomer A)]",25,20
"N=C(N)NC(=N)Nc1ccccc1 [Example 3, 1-Phenylbiguanide]",75,5.5
"N#CNc1cccc(C(=O)O)c1 [Example 21, 3-Cyanoaminobenzoic acid hydrate (5:1)]",–,4
"N=C(N)Nc1cc(C=NO)cc(C(=O)O)c1 [Example 51, 3-[(Aminoiminomethyl)amino]-5-[(N-hydroxylimino)methyl]benzoic acid hydrate (4:3)]",–,0.8
"CC(=O)Nc1ccc(C(=O)O)cc1CO.[Na+].[OH-] [Example 31, 4-Acetylamino-3-hydroxymethylbenzoic acid, complex with NaOH [5:3]]",31,–
"N#CN=C(N)Nc1cccc(C(=O)O)c1 [Example 18, 3-[Amino(cyanoimino)methyl]aminobenzoic acid hydrate (4:1)]",68,–
"CC(C)C(=O)Nc1ccc(C(=O)O)cc1NC(=N)N [Example 40, 3-[(Aminoiminomethyl)amino]-4-(2-methylpropionylamino)benzoic acid hydrate [2:1]]",–,1
"CC(=O)Nc1ccc(P(=O)(O)O)cc1 [Example 7, 4-Acetylaminophenylphosphonic acid]",32,–
"CC(=O)Nc1ccc(C(=O)O)cc1C=NO [Example 42, 4-Acetylamino-3-[(hydroxylimino)methyl]benzoic acid hydrate (4:1)]",–,5.5
"3-[(Aminoiminomethyl)amino]-4-[(methylamino)carbonyl]benzoic acid hydrochloride, complex with water and methanol (4:4:4:1 and 5:5:5:1) [Example 53]",–,0.005
"CNC(=O)c1ccc(C(=O)O)cc1 [Example 27, 4-(Methylaminocarbonyl)benzoic acid]",27,–
"CC(=O)Nc1ccc(CC(=O)O)cc1 [Example 26, 4-(Acetamido)phenylacetic acid]",15,–
"CS(=O)(=O)Nc1ccc(C(=O)O)cc1NC(=N)N [Example 43, 3-[(Aminoiminomethyl)amino]-4-[(methylsulfonyl)amino]benzoic acid, solvate with water (2:1)]",–,0.1
"N=C(N)Nc1cc(N)cc(C(=O)O)c1 [Example 50, Sodium 3-amino-5-[(aminoimino)methyl]aminobenzoate hydrate]",–,2
"CC(=S)Nc1ccc(C(=O)O)cc1 [Example 10, 4-Thioacetamidobenzoic acid]",–,1
"N=C(N)Nc1cc(NC(=N)N)cc(C(=O)O)c1 [Example 49, 3,5-Bis-[(aminoiminomethyl)amino]benzoic acid hydrochloride, solvate with ethanol (10:15:2)]",–,1.5
"N=C(N)Nc1cccc(C(=O)O)c1 [Example 17, 3-Guanidinobenzoic acid hydrochloride (2:1)]",–,5
"CC(=O)Nc1ccc(C(=O)O)cc1CCO [Example 33, β-(2-N-Acetylamino-5-carboxyphenyl)ethanol]",42,–
"N=C(N)Nc1cc(C(=O)O)ccc1O [Example 47, 3-[(Aminoiminomethyl)amino]-4-hydroxybenzoic acid hydrochloride (1:1)]",33,–
"CC(=O)Nc1ccc(C(=O)O)cc1N [Example 37, 4-Acetylamino-3-aminobenzoic acid hydrochloride (2:1)]",28,14
